Laboratory results from patent publication US9896441B2 (Lycera Corporation, priority 2014, dated 2018).

Tests used:
[1] = target: T1, RORγ-LBD (Homo sapiens, UniProt P51449); assay: RORγ-Ligand Binding Domain (LBD) TR-FRET Assay; format: biochemical; conditions: for TR-FRET Assay Max Response: maximum response;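 as to TR-FRET Assay Max Response: 665/615 nm signal ratio set to 100 without ursolic acid or test compound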
T1 construct: made in house; host or cells: SF9 cells (baculovirus); used as diluted lysate
T1 sequence (P51449 269-508 limits assumed): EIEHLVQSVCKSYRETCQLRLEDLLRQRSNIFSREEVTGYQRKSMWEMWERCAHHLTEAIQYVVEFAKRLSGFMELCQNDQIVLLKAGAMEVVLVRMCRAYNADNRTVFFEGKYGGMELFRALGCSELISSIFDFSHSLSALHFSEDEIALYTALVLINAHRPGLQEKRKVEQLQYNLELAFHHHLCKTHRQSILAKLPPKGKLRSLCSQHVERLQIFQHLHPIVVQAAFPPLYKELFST
Summary of the method: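 This TR-FRET coactivator assay pairs baculovirus-expressed His-RORγ-LBD (~3 nM final) with biotin-SRC1 LXXLL peptide at 200 nM final in pH 7.0 Tris/KCl/EDTA/DTT/BSA buffer.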

[2] = target: T2, Gal4-RORγ-LBD (Homo sapiens, UniProt P51449); assay: Gal4-RORγ Luciferase Reporter Assay in HEK-293T Cells; format: cell-based; conditions: HEK-293 cells; for Gal4-RORγ Assay Max Response: maximum response
T2 construct: expressed in transfected cells
T2 sequence (P51449 269-508 limits assumed): T1 sequence (P51449 269-508 limits assumed)
Procedure: Assay procedures and results are described below.
In the following protocol, HEK-293 cells were transfected with a construct comprising the Gal4 DNA binding domain fused to the ligand binding domain of RORγ (Gal4-RORγ-LBD) in a pcDNA3.1neo plasmid, and also with a reporter construct comprising pGL4.31 Gal4-luciferase (Promega). Control cells were prepared similarly using empty pcDNA3.1neo and pGL4.31 vectors.
Trans-IT reagent (Mirus, 60 μL) at room temperature was added drop wise to OptiMEM (Invitrogen, 1.5 ml). This reagent mixture was mixed by inversion then incubated for 5 to 30 minutes at room temperature. It then was added to a solution of both expression vectors (5 μg each), mixed, and incubated at room temperature for about 20 minutes. HEK-293 cells were harvested from incubation flasks by removing the media, treating with TrypLE Express (Invitrogen), and incubating until the cells detached from the bottom of the flask (approximately 2-5 minutes). 10 Million cells were collected by centrifugation and re-suspended in 10 mL of Dulbecco's Modified Eagle Medium, High Glucose (DMEM, Invitrogen) containing 10% Fetal Bovine Serum and 100 IU each of penicillin and streptomycin. The re-suspended cells and the transfection mixture were added to a T75 flask, mixed and incubated overnight at 37° C. and 5% CO2.
The cells were harvested as described above, counted, and centrifuged to obtain the desired number of cells, then re-suspended in complete growth media at 0.75×10^6 cells/mL. The RORγ antagonist, ursolic acid, was added to the cells at a final concentration of […]. Cells were plated at 20 µL of cell suspension/well (10,000-15,000 cells/well) in white tissue culture treated 384 well plates. Test compounds were dissolved at 10 mM in DMSO then diluted into complete growth medium to 5× the final intended test concentration. These drug stock solutions, 5 µL/well were added to the tissue culture plate. The final DMSO concentration was 0.2%. The plates were briefly centrifuged then incubated overnight at 37° C. and 5% CO2. To conduct the assay, the tissue culture plates were allowed to equilibrate to room temperature and One-Glo luciferase reagent (Promega, 25 µL/well) was added. The plates were briefly centrifuged then incubated at room temperature for 10 minutes. The luciferase intensity was read on an Envision plate reader (Perkin Elmer). […] The luciferase signal in the absence of ursolic acid or test compound is defined at 100. The Max Response is the upper plateau in the signal as determined by line-fit using a 4-parameter logistic model in PRISM (GraphPad).

[3] = with 2 μM ursolic acid (RORγ antagonist), highest test concentration 10 μM
[4] = ursolic acid present, luciferase readout
[5] = luciferase reporter, with ursolic acid
[6] = luciferase reporter, in presence of ursolic acid

SMILES | EC50 [1, 3] [nM] | EC50 [2, 4] [nM] | EC50 ([1]; RORγ-LBD TR-FRET assay) [nM] | TR-FRET Assay Max Response ([1]; RORγ-LBD TR-FRET assay) | EC50 [2, 6] [nM] | Gal4-RORγ Assay Max Response [2, 6] | other results
CCOC(=O)[C@@H]1Cc2ccc(OCc3c(F)cccc3Cl)cc2N(S(=O)(=O)c2ccc(F)c(OC)c2)[C@@H]1C | < 500 | 500 to 5000 |  |  |  |  | 
CCOc1nn(CC)cc1S(=O)(=O)N1CC(C(=O)O)Cc2ccc(OCc3c(F)cccc3Cl)cc21 (stereo not shown) | < 500 | > 10000 |  |  |  |  | 
O=C(O)C1Cc2ccc(OCc3c(F)cccc3Cl)cc2N(S(=O)(=O)c2cccc(C(F)(F)F)c2)C1 (stereo not shown) | < 500 | 500 to 5000 |  |  |  |  | 
O=C(O)CC[C@H]1CN(S(=O)(=O)c2cccc(C(F)(F)F)c2)c2cc(CCc3c(F)cccc3Cl)ccc2O1 | < 500 | 500 to 5000 |  |  |  |  | 
C/C(=C\c1ccc2c(c1)N(S(=O)(=O)c1cccc(C(F)(F)F)c1)CC(C(=O)O)C2)c1c(F)cccc1Cl (stereo not shown) | < 500 | 500 to 5000 |  |  |  |  | 
CCOC(=O)C1Cc2ccc(CCc3c(F)cccc3Cl)cc2N(S(=O)(=O)c2cccc(C(F)(F)F)c2)C1 (stereo not shown) | < 500 | < 500 |  |  |  |  | 
N#CCC[C@H]1CN(S(=O)(=O)c2cccc(C(F)(F)F)c2)c2cc(CCc3c(F)cccc3Cl)ccc2O1 | < 500 | < 500 |  |  |  |  | 
C/C(=C\c1ccc2c(c1)N(S(=O)(=O)c1cccc(C(F)(F)F)c1)C[C@H](CCC#N)O2)c1c(F)cccc1Cl | < 500 | < 500 |  |  |  |  | 
O=C(O)C[C@H]1CN(S(=O)(=O)c2cccc(C(F)(F)F)c2)c2cc(COc3c(F)cccc3Cl)ccc2O1 | < 500 | 500 to 5000 |  |  |  |  | 
O=S(=O)(c1cccc(C(F)(F)F)c1)N1C[C@H](CCO)Oc2ccc(COc3c(F)cccc3Cl)cc21 | < 500 | 500 to 5000 |  |  |  |  | 
C[C@H]1CN(S(=O)(=O)c2cccc(C(F)(F)F)c2)c2cc(COc3c(F)cccc3Cl)ccc2O1 | < 500 | 5000 to 10000 |  |  |  |  | 
C[C@H]1CN(S(=O)(=O)c2ccc(F)cc2)c2cc(COc3c(F)cccc3Cl)ccc2O1 | < 500 | 5000 to 10000 |  |  |  |  | 
CCOC(=O)[C@@H]1Cc2ccc(OC3CCc4ccccc43)cc2N(S(=O)(=O)c2ccc(F)c(OC)c2)[C@@H]1C (mixture of isomers) [Example 20, (2R,3R)-Ethyl 7-((2,3-dihydro-1H-inden-1-yl)oxy)-1-((4-fluoro-3-methoxyphenyl)sulfonyl)-2-methyl-1,2,3,4-tetrahydroquinoline-3-carboxylate] |  |  |  |  |  |  | EC50 ([1]; RORγ-LBD TR-FRET): < 500 nM; EC50 [2, 5]: < 500 nM
COc1cc(S(=O)(=O)N2c3cc(OC4CCc5ccccc54)ccc3C[C@@H](C(=O)O)[C@H]2C)ccc1F (mixture of isomers) [Example 22, (2R,3R)-7-((2,3-Dihydro-1H-inden-1-yl)oxy)-1-((4-fluoro-3-methoxy-phenyl)sulfonyl)-2-methyl-1,2,3,4-tetrahydroquinoline-3-carboxylic acid] |  |  |  |  |  |  | EC50 ([1]; RORγ-LBD TR-FRET): < 500 nM; EC50 [2, 5]: 500 to 5000 nM
COc1cc(S(=O)(=O)N2c3cc(/C=C/c4c(F)cccc4Cl)ccc3C[C@@H](O)[C@H]2C)ccc1F (racemic) [Example 168, (2R,3R)-7-((E)-2-Chloro-6-fluorostyryl)-1-((4-fluoro-3-methoxyphenyl)sulfonyl)-2-methyl-1,2,3,4-tetrahydroquinolin-3-ol] |  |  | < 500 | *** (a value in the range of greater than 150 to 200) | < 500 | * (a value in the range of 30 to 90) | 
COc1cc(S(=O)(=O)N2c3cc(/C=C(\C)c4c(F)cccc4Cl)ccc3C[C@@H](O)[C@H]2C)ccc1F (racemic) [Example 169, (2R,3R)-7-((E)-2-(2-Chloro-6-fluorophenyl)prop-1-en-1-yl)-1-((4-fluoro-3-methoxyphenyl)sulfonyl)-2-methyl-1,2,3,4-tetrahydroquinolin-3-ol] |  |  | < 500 | *** (a value in the range of greater than 150 to 200) | < 500 | * (a value in the range of 30 to 90) | 
C[C@@H]1[C@H](O)Cc2ccc(/C=C/c3c(F)cccc3Cl)cc2N1S(=O)(=O)c1cccc(C(F)(F)F)c1 (racemic) [Example 170, (2R,3R)-7-((E)-2-Chloro-6-fluorostyryl)-2-methyl-1-((3-(trifluoromethyl)phenyl)sulfonyl)-1,2,3,4-tetrahydroquinolin-3-ol] |  |  | < 500 | *** (a value in the range of greater than 150 to 200) | 500 to 5000 | *** (a value in the range of greater than 150 to 200) | 
C/C(=C\c1ccc2c(c1)N(S(=O)(=O)c1cccc(C(F)(F)F)c1)[C@H](C)[C@H](O)C2)c1c(F)cccc1Cl (racemic) [Example 171, (2R,3R)-7-((E)-2-(2-Chloro-6-fluorophenyl)prop-1-en-1-yl)-2-methyl-1-((3-(trifluoromethyl)phenyl)sulfonyl)-1,2,3,4-tetrahydroquinolin-3-ol] |  |  | < 500 | *** (a value in the range of greater than 150 to 200) | 500 to 5000 | ** (a value in the range of greater than 90 to 150) | 
COc1cc(S(=O)(=O)N2c3cc(/C=C/c4c(F)cccc4Cl)ccc3C[C@H](O)[C@H]2C)ccc1F (racemic) [Example 174, rac-(2R,3S)-7-((E)-2-Chloro-6-fluorostyryl)-1-((4-fluoro-3-methoxyphenyl)sulfonyl)-2-methyl-1,2,3,4-tetrahydroquinolin-3-ol] |  |  | < 500 | ** (a value in the range of greater than 90 to 150) | 500 to 5000 | * (a value in the range of 30 to 90) | 
COc1cc(S(=O)(=O)N2c3cc(/C=C(\C)c4c(F)cccc4Cl)ccc3C[C@H](O)[C@H]2C)ccc1F (racemic) [Example 175, rac-(2R,3S)-7-((E)-2-(2-Chloro-6-fluorophenyl)prop-1-en-1-yl)-1-((4-fluoro-3-methoxyphenyl)sulfonyl)-2-methyl-1,2,3,4-tetrahydroquinolin-3-ol] |  |  | < 500 | ** (a value in the range of greater than 90 to 150) | 500 to 5000 | * (a value in the range of 30 to 90) | 
C[C@@H]1[C@@H](O)Cc2ccc(/C=C/c3c(F)cccc3Cl)cc2N1S(=O)(=O)c1cccc(C(F)(F)F)c1 (racemic) [Example 176, rac-(2R,3S)-7-((E)-2-Chloro-6-fluorostyryl)-2-methyl-1-((3-(trifluoromethyl)phenyl)sulfonyl)-1,2,3,4-tetrahydroquinolin-3-ol] |  |  | < 500 | *** (a value in the range of greater than 150 to 200) | 500 to 5000 | ** (a value in the range of greater than 90 to 150) | 
C/C(=C\c1ccc2c(c1)N(S(=O)(=O)c1cccc(C(F)(F)F)c1)[C@H](C)[C@@H](O)C2)c1c(F)cccc1Cl (racemic) [Example 177, rac-(2R,3S)-7-((E)-2-(2-Chloro-6-fluorophenyl)prop-1-en-1-yl)-2-methyl-1-((3-(trifluoromethyl)phenyl)sulfonyl)-1,2,3,4-tetrahydroquinolin-3-ol] |  |  | < 500 | ** (a value in the range of greater than 90 to 150) | 500 to 5000 | ** (a value in the range of greater than 90 to 150) | 
COc1cc(S(=O)(=O)N2C[C@H](CCC(=O)O)Oc3ccc(/C=C(\C)C4CCCCC4)cc32)ccc1F [Example 190, (S,E)-3-(6-(2-cyclohexylprop-1-en-1-yl)-4-((4-fluoro-3-methoxyphenyl)sulfonyl)-3,4-dihydro-2H-benzo[b][1,4]oxazin-2-yl)propanoic acid] |  |  |  |  | > 10000 |  | 
